Measured values taken from patent US12522602B2, “Derivatives having 2,3-dihydro-1H-indene or 2,3-dihydrobenzofuran moiety or pharmaceutically acceptable salt thereof and pharmaceutical compositions comprising the same” (YUHAN CORPORATION, priority 2019, dated 2026).

Test system: GM1 production in Jurkat cells
Assay: cells
Assay type: cell-based
Conditions: Homo sapiens, Jurkat, 72 h

SMILES	IC50 [nM]
COc1ccc(C(C)C)cc1-c1ccc2c(c1)CC(C)(C)C2NC(=O)O[C@@H]1CN2CCC1CC2 (stereo partly drawn) [Example 232, (S)-quinuclidin-3-yl (5-(5-isopropyl-2-methoxyphenyl)-2,2-dimethyl-2,3-dihydro-1H-inden-1-yl)carbamate]	12.5
Cc1ccc(-c2ccc3c(c2)CC(C)(C)C3NC(=O)O[C@@H]2CN3CCC2CC3)c(F)c1 (stereo partly drawn) [Example 233, (S)-quinuclidin-3-yl (5-(2-fluoro-4-methylphenyl)-2,2-dimethyl-2,3-dihydro-1H-inden-1-yl)carbamate]	23.3
COc1ccc(F)cc1-c1ccc2c(c1)CC(C)(C)C2NC(=O)O[C@@H]1CN2CCC1CC2 (stereo partly drawn) [Example 234, (S)-quinuclidin-3-yl (5-(5-fluoro-2-methoxyphenyl)-2,2-dimethyl-2,3-dihydro-1H-inden-1-yl)carbamate]	13.6
Cc1cc(-c2ccc3c(c2)CC(C)(C)C3NC(=O)O[C@@H]2CN3CCC2CC3)co1 (stereo partly drawn) [Example 235, (S)-quinuclidin-3-yl (2,2-dimethyl-5-(5-methylfuran-3-yl)-2,3-dihydro-1H-inden-1-yl)carbamate]	6.5
COc1c(F)cccc1-c1ccc2c(c1)CC(C)(C)C2NC(=O)O[C@@H]1CN2CCC1CC2 (stereo partly drawn) [Example 236, (S)-quinuclidin-3-yl (5-(3-fluoro-2-methoxyphenyl)-2,2-dimethyl-2,3-dihydro-1H-inden-1-yl)carbamate]	32.4
CC1(C)Cc2cc(-c3cccc(F)c3Cl)ccc2C1NC(=O)O[C@@H]1CN2CCC1CC2 (stereo partly drawn) [Example 237, (S)-quinuclidin-3-yl (5-(2-chloro-3-fluorophenyl)-2,2-dimethyl-2,3-dihydro-1H-inden-1-yl)carbamate]	29.2
CC1(C)Cc2cc(-c3csc4ccccc34)ccc2C1NC(=O)O[C@@H]1CN2CCC1CC2 (stereo partly drawn) [Example 238, (S)-quinuclidin-3-yl (5-(benzo[b]thiophen-3-yl)-2,2-dimethyl-2,3-dihydro-1H-inden-1-yl)carbamate]	13.2
CCCOc1cc(F)ccc1-c1ccc2c(c1)CC(C)(C)C2NC(=O)O[C@@H]1CN2CCC1CC2 (stereo partly drawn) [Example 239, (S)-quinuclidin-3-yl (5-(4-fluoro-2-propoxyphenyl)-2,2-dimethyl-2,3-dihydro-1H-inden-1-yl)carbamate]	48.9
Cc1cc(-c2ccc3c(c2)CC(C)(C)C3NC(=O)O[C@@H]2CN3CCC2CC3)cc(C(C)(C)C)c1 (stereo partly drawn) [Example 240, (S)-quinuclidin-3-yl (5-(3-(tert-butyl)-5-methylphenyl)-2,2-dimethyl-2,3-dihydro-1H-inden-1-yl)carbamate]	51.3
CCOc1ccc(Cl)c(-c2ccc3c(c2)CC(C)(C)C3NC(=O)O[C@@H]2CN3CCC2CC3)c1 (stereo partly drawn) [Example 241, (S)-quinuclidin-3-yl (5-(2-chloro-5-ethoxyphenyl)-2,2-dimethyl-2,3-dihydro-1H-inden-1-yl)carbamate]	51.3
CC1(C)Cc2cc(-c3ccc(Cl)c(F)c3)ccc2C1NC(=O)O[C@@H]1CN2CCC1CC2 (stereo partly drawn) [Example 242, (S)-quinuclidin-3-yl (5-(4-chloro-3-fluorophenyl)-2,2-dimethyl-2,3-dihydro-1H-inden-1-yl)carbamate]	64.4
Cc1cccc(-c2ccc3c(c2)CC(C)(C)C3NC(=O)O[C@@H]2CN3CCC2CC3)c1F (stereo partly drawn) [Example 243, (S)-quinuclidin-3-yl (5-(2-fluoro-3-methylphenyl)-2,2-dimethyl-2,3-dihydro-1H-inden-1-yl)carbamate]	21.4
COc1ccc(C#N)cc1-c1ccc2c(c1)CC(C)(C)C2NC(=O)O[C@@H]1CN2CCC1CC2 (stereo partly drawn) [Example 244, (S)-quinuclidin-3-yl (5-(5-cyano-2-methoxyphenyl)-2,2-dimethyl-2,3-dihydro-1H-inden-1-yl)carbamate]	38
CCOc1cc(-c2ccc3c(c2)CC(C)(C)C3NC(=O)O[C@@H]2CN3CCC2CC3)cc(C(F)(F)F)c1 (stereo partly drawn) [Example 245, (S)-quinuclidin-3-yl (5-(3-ethoxy-5-(trifluoromethyl)phenyl)-2,2-dimethyl-2,3-dihydro-1H-inden-1-yl)carbamate]	23
